Source: patent US20240254489A1, “COMPOSITIONS AND METHODS OF TARGETING THE PAX6 SIGNALING PATHWAY TO REDUCE FORMATION OF AMYLOID BETA PLAQUES AND NEUROFIBRILLARY TANGLES” (The University of Hong Kong, priority 2021, published 2024)

Experiments:
cdks 1, 2, 4 and 7 = details: in vitro; cited from earlier work
Pax6 promoter = Pax6 promoter luciferase reporter assay in amyloid β-treated cortical neurons; assay type: cell-based, mouse; details: co-treatment with amyloid β
Experimental: Cortical neurons were transfected with luciferase reporter constructs three days after plating. After amyloid β treatment, luciferase activity of a target gene was determined using the dual-luciferase reporter assay system (Promega) in a microplate luminometer. Luciferase activity was normalised against Renilla activity for the transfection efficiency using a pRL Renilla luciferase control reporter construct. Next, experiments were designed to investigate whether the upregulation of Pax6 and c-Myb is associated with an increase in transcriptional activation of their targets. Cortical neurons were transfected with a P6CON luciferase reporter construct, which contained three standard Pax6 binding sites^39 to measure Pax6 binding; a luciferase construct containing the Pax6 P1 promoter^40 to measure Pax6 promoter activation; or with a luciferase construct containing c-Myb binding sites to measure c-Myb binding. The same luciferase assays were then performed after amyloid β treatment.

cortical neurons = assay: Neuronal survival assay of amyloid β neurotoxicity; assay type: cell-based, mouse; details: co-treatment with amyloid β
Experimental: The survival assay of amyloid β neurotoxicity was performed as reported previously^33. At various time periods, neurons were lysed in a cell lysis buffer. Under light microscopy, the numbers of intact nuclei indicating living cells was quantified and expressed relative to the number of cells in the control group without amyloid β treatment.
The brains were dissociated from skulls, meninges removed and cortices isolated. Individual cells were dissociated by incubation with trypsin and DNase (Sigma). Cells were plated on poly-d-lysine (Sigma)-coated 24-well plates at a density of 1.5×10^6 cells/ml in Neurobasal medium (Thermo Fisher Scientific) supplemented with B-27 (Thermo Fisher Scientific), N-2 (Thermo Fisher Scientific), and glutamine (0.5 mM, Thermo Fisher Scientific). Three days after seeding, cultured cells were transfected with siRNAs (60 pmol/24-well) using Lipofactamine 2000 transfection reagent (Thermo Fisher Scientific). Twenty-four hours after transfection, cells were exposed to amyloid β1-42 (5 μM) for the indicated time periods and then processed for subsequent assays. SiRNAs from Santa Cruz are provided as pools consisting of three to five target-specific 19-25 nucleotides siRNAs designed to specifically knockdown the expression of mouse Pax6, c-Myb or E2F1. Silencer Select Pre-designed siRNAs were from Ambion, non-targeting siRNA was used as a negative control. […]

Pax6 and c-Myb = assay: RT-PCR and Western blot of amyloid β-induced Pax6 and c-Myb in cortical neurons; assay type: cell-based, mouse
Experimental: Human brain tissues or mouse cortical neurons were dissolved in ice-cold 1×RIPA buffer (Cell Signaling) with proteinase inhibitor cocktail (Sigma). Proteins were separated on NuPAGE Novex 4-12% Bis-Tris gels (Thermo Fisher Scientific) and transferred to nitrocellulose membranes. Membranes were probed with indicated primary antibodies. The blots were analysed and quantified by densitometry using ImageJ software (Version 1.52t, National Institutes of Health).
Total mRNA was prepared from cell cultures utilizing TRIzol reagent (Thermo Fisher Scientific). Semi-quantitative RT-PCR experiments were performed to examine RNA expression of target genes. Briefly, 2 μg of total RNA was reverse-transcribed using SuperScript First-Strand Synthesis System (Thermo Fisher Scientific). The first-strand cDNA was used as a template. β-actin was used as the normalisation control.
Primary cortical neurons were derived from embryonic day 14.5 (E14.5) C57BL/6 mice^31. The brains were dissociated from skulls, meninges removed and cortices isolated. Individual cells were dissociated by incubation with trypsin and DNase (Sigma). Cells were plated on poly-d-lysine (Sigma)-coated 24-well plates at a density of 1.5×10^6 cells/ml in Neurobasal medium (Thermo Fisher Scientific) supplemented with B-27 (Thermo Fisher Scientific), N-2 (Thermo Fisher Scientific), and glutamine (0.5 mM, Thermo Fisher Scientific). […]

5×FAD mice [1] = assay: Immunofluorescence, Western blot and Aβ deposits in brain of palbociclib-treated 5×FAD mice; assay type: in vivo, mouse
From the text: (§1) FIG. 9A-9D show effects of palbociclib on 5×FAD mice model. FIGS. 9A and 9B is a series of immunofluorescent images showing expression of cell cycle marker (Cyclin D1) (9A) and Pax6 (9B). […] FIG. 9D is an image of an autoradiogram of a Western blot and the associated quantitative bar graph showing the relative expression of E2F-1, CDK6, c-Myb, APP, Iba1 and LC3B in palbociclib treatment group compared to controls. FIG. 9E is a series of images of brain tissue showing the relative Aβ deposits in palbociclib treated mouse brain tissue compared to controls. FIG. 9F is a series of images of liver, gallbladder and kidney in palbociclib treated mouse. FIGS. 9G-9J show the effect of palbociclib treatment on learning and memory ability of 5×FAD female mice in morris water maze. FIG. 9G is a schematic diagram of palbociclib administration with 60 mg/(kg*d); 10-month-old wild-type mice (WT) and 5×FAD mice were administrated with solvent (ctrl) and 60 mg/kg/day palbociclib (palb) for 2 months via oral garage; Morris water maze with n(WT-ctrl)=5, n(5×FAD-ctrl)=5, n(5×FAD-palb)=3 were performed.
FIGS. 8A-8E show the effects of palbociclib on 5×FAD mice models.
FIGS. 9A-9D show effects of palbociclib on 5×FAD mice model. FIGS. 9A and 9B is a series of immunofluorescent images showing expression of cell cycle marker (Cyclin D1) (9A) and Pax6 (9B). […] FIG. 9D is an image of an autoradiogram of a Western blot and the associated quantitative bar graph showing the relative expression of E2F-1, CDK6, c-Myb, APP, Iba1 and LC3B in palbociclib treatment group compared to controls. FIG. 9E is a series of images of brain tissue showing the relative […] deposits in palbociclib treated mouse brain tissue compared to controls.

293T-APP cell line = assay: Western blot of CDK4 and Cyclin D1 in 293T-APP cell line; assay type: cell-based; details: 10 nM and 50 nM
From the text: (§2) Experiments were designed to test the effect of palbociclib on Tau in vitro and in vivo.

5×FAD mice [2] = assay: Morris water maze of palbociclib-treated 5×FAD mice; assay type: in vivo, mouse
From the text: as §1
FIGS. 9G-9J show the effect of palbociclib treatment on learning and memory ability of 5×FAD female mice in morris water maze. FIG. 9G is a schematic diagram of palbociclib administration with 60 mg/(kg*d); 10-month-old wild-type mice (WT) and 5×FAD mice were administrated with solvent (ctrl) and 60 mg/kg/day palbociclib (palb) for 2 months via oral garage; Morris water maze with n(WT-ctrl)=5, n(5×FAD-ctrl)=5, n(5×FAD-palb)=3 were performed.

293T-Tau cell line = assay: Western blot of CDK4 and Cyclin D1 in 293T-Tau cell line; assay type: cell-based; details: 10 nM and 50 nM
From the text: as §2

[3] = Images of liver, gallbladder and kidney in palbociclib treated mouse; assay type: in vivo
From the text: as §1
FIGS. 9A-9D show effects of palbociclib on 5×FAD mice model. […] FIG. 9D is an image of an autoradiogram of a Western blot and the associated quantitative bar graph showing the relative expression of E2F-1, CDK6, c-Myb, APP, Iba1 and LC3B in palbociclib treatment group compared to controls. […]

C/EBPa = details: cited from earlier work
[4] = 5×FAD female mice, 60 mg/kg/day oral 2 months

SMILES: CN1CC[C@H](c2c(O)cc(O)c3c(=O)cc(-c4ccccc4Cl)oc23)[C@H](O)C1 [flavopiridol]
- inhibition of all cdks tested (cdks 1, 2, 4 and 7) (cdks 1, 2, 4 and 7): potent and specific in vitro inhibition
- amyloid β-induced activation of the Pax6 promoter (Pax6 promoter): blocked
- amyloid β-induced death of cortical neurons (cortical neurons): protected cortical neurons against amyloid β-induced death
- amyloid β-induced upregulation of Pax6 and c-Myb mRNA and protein (Pax6 and c-Myb): significantly blocked

SMILES: CC(=O)c1c(C)c2cnc(Nc3ccc(N4CCNCC4)cn3)nc2n(C2CCCC2)c1=O [palbociclib]
- Aβ deposit in brain tissue (5×FAD mice [1]): relative fewer
- expression of Pax6 (5×FAD mice [1]): decreased expression
- expression of cell cycle marker (Cyclin D1) (5×FAD mice [1]): increased expression
- expression of E2F-1 (5×FAD mice [1]; treatment group compared to controls): relative decreased expression
- expression levels of CDK4 and Cyclin D1 (293T-APP cell line): Decreased
- frequency of crossing platform in probe trial (5×FAD mice [2]; [4]): significantly increased
- latency to platform in probe trial (5×FAD mice [2]; [4]): significantly improved to the level of the wild type control
- memory and learning of 5×FAD mice (5×FAD mice [2]; mouse, in vivo): able to improve memory and learning
- expression levels of CDK4 and Cyclin D1 (293T-Tau cell line): decreased
- side effect (liver, gallbladder and kidney images) [3]: no side effect

SMILES: COc1ccccc1-n1c(/C=C/c2ccc(O)c(O)c2)nc2ccccc2c1=O [ICCB280]
- induction of C/EBPa (C/EBPa): potent inducer
